Experiments:
[1] = test system: ERK; assay: Western blot of ERK activity (p-ERK/ERK) in hippocampal slices; assay type: cell-based, mouse; conditions: 100, 300 and 500 μM, 10 minutes treatment
Description: After removing the CA3 region from the hippocampal slice surgically, the slices were recovered in the 36° C. and normal ACSF for 4 hours. Each sample was treated with each drug for 10 minutes, and then frozen using liquefied nitrogen. Western blot analysis of drug-induced changes in ERK activity in the hippocampal slices was performed in a manner as previously described (Song et al., 2017). The slices were homogenized using a probe sonicator in a cold lysis buffer about at a temperature of ice. The lysis buffer contained 50 mM HEPES, 100 mM NaCl, 5 mM EGTA, 5 mM EDTA, 1% Triton X-100, a phosphatase inhibitor mixer (GenDEPOT, TX, USA) and a protease inhibitor mixer (Sigma-Aldrich, MO, USA). The total protein concentration of the homogenate was determined by Bradford protein assay (Bio-Rad, CA, USA). Samples containing 10 to 12 μg of protein were separated using SDS-PAGE gels and transferred to the nitrocellulose membrane. The membrane was sequentially reacted with a primary antibody (p-ERK and ERK; Cell Signaling Technologies, MA, USA) and a secondary antibody (Jackson ImmunoResearch, USA) having horse radish peroxidase (HRP) coupled thereto. HRP signals were detected on an enhanced chemiluminescence (ECL) substrate (GE Healthcare, UK) and then quantified with MetaMorph software (Molecular Devices, CA, USA). […]

[2] = test system: NMDAR-EPSC in CA1 neurons; assay: NMDAR-mediated EPSC recording in CA1 neurons; assay type: cell-based, mouse; conditions: −40 mV; NBQX and picrotoxin present; 100-ms interval
Description: (§1) To measure evoked excitatory post-synaptic current (eEPSC), the synapse potential was recorded using a patch pipette (3 to 4Mohm) via the membrane voltage clamp technique. The patch pipette contained a solution containing 100 mM CsMeSO4, 10 mM TEA-Cl, 20 mM CsCl, 8 mM NaCl, 10 mM HEPES, 0.5 mM QX-314-Cl, 4 mM Mg-ATP, 0.3 mM Na-GTP and 10 mM EGTA and having pH 7.25 and 290 mOsm/kg. EPSC was measured at a frequency of 0.05 Hz. The synaptic current was induced using a glass pipette (0.3 to 0.5 Mohm). GABAA receptor (GABAAR) antagonist picrotoxin (50 μM) was added to ACSF.

[3] = test system: AMPAR-EPSC in CA1 neurons; assay: AMPAR-mediated EPSC whole-cell patch clamp in CA1 neurons; assay type: cell-based, mouse
Description: as §1
Thus, it was necessary to check the effect of SYR on desensitization of AMPAR in CA1 neurons. The whole-cell patch clamp technique was used in the presence of NMDAR blocker AP-5 and GABAA receptor blocker picrotoxin (PTX, 50 μM).
To confirm this assumption, we examined the effect of SYR on AMPAR-EPSC by injecting, as the actin-stabilizer, jasplakinolide (2 μM) into the patch pipette solution (FIG. 3H to FIG. 3J).
Furthermore, we checked whether post-synaptic loading of SYR regulates AMPAR-EPSC. We measured AMPAR-EPSC for 25 minutes immediately after cell membrane-punching using a K+-based pipette solution. […] If the post-synaptic loading of SYR affects AMPAR-EPSC, gradual diffusion of SYR from the pipette solution should inhibit AMPAR-EPSC.
Previous studies have shown that the secretion probability is regulated by the size of the readily releasable pool (RRP) of hippocampal neurons. Therefore, RRP was measured before and after treatment with SYR (100 μM). A high-frequency train (20 Hz) composed of more than 60 stimuli was prepared. 80 stimuli at 20 Hz was applied to completely remove RRP from the SC-CA1 synapse. RRP size was measured by cumulative amplitude analysis (Stevens and Williams, 2007; Wesseling and Lo, 2002).

[4] = Open field test; assay type: in vivo, mouse; conditions: 10 mg/kg intraperitoneally, test 30 minutes after injection, 30-minute test
Description: All experiments were performed using male and female C57BL/6 mice of 4 to 6 weeks of age. An open field test was performed on male mice of 6 to 7 weeks. Animals were maintained with circulating 12/12-h day/night, while daytime starts at 07:00. Three or five animals were housed per one cage. Free available food and water were fed to the mice under specific pathogenic-microorganism free (SPF) conditions. The animal maintenance protocol and all experimental procedures were approved by the Institutional Animal Care and Use Committee (IACUC) of Seoul National University.
In an open field test, we video-recorded a movement of a 7 to 10-week-old mouse in a white plastic chamber (40×40×40 cm) in a darkened room for 30 minutes. Then, the moving distance of the mouse was measured using Ethovision XT (Noldus) software.
To determine the change of the activity of the mice by syringaresinol, we injected syringaresinol at a concentration of 10 mg/kg intraperitoneally into the mice. After 30 minutes, we measured the activity of the mice via an open field test. In this connection, control was injected with DMSO, a solvent used for dissolving syringaresinol. The open field test was conducted for 30 minutes. The activity of the mouse was checked at a 5-minute interval. Further, during the 30-minute test, the total movement distance of the mouse was measured.

COc1cc(C2OCC3C(c4cc(OC)c(O)c(OC)c4)OCC23)cc(OC)c1O (stereo not drawn) [SYR, syringaresinol]
ERK activity [1]: did not affect ERK activity
NMDAR-EPSC induced by paired-pulse stimulation [2]: significantly inhibited
AMPAR-EPSC ([3]; 100 μM, AP-5 and picrotoxin present): inhibited
excitatory post-synaptic current (EPSC) amplitude ([3]; fixed potential of −70 mV, AP-5 and picrotoxin 50 μM present): significantly reduced
time constant of EPSC reduction (decay) ([3]; −70 mV): did not affect
activity of the mouse as fraction of control (movement distance) [4]: ¼
